# Key:
# Format in all cases: physicochemical
# [1] = Measurement of an optically active substance ratio (chiral stationary phase column); details: p-toluenesulfonate; for Optically active substance ratio ((+)/(−)): crystals, Chiralcel OD-H column; for Optically active substance ratio of the suplatast tosilate in the mother liquor: mother liquor after crystallization
# Method: [Test 1] Measurement of an Optically Active Substance Ratio
# The optically active substance ratio of each of the suplatast tosilate crystals of the present invention obtained in Examples 1 to 3, and the suplatast tosilate first crystals obtained in Comparative Examples 1 to 3 was measured using a chiral stationary phase column (“Chiralcel OD-H”, 4.6 mm×25 cm, product of Daicel Chemical Industries) with n-hexane ethanol-trifluoroacetic acid-diethylamine (750:250:5:1) as a mobile phase.
# The optically active substance ratio of the suplatast tosilate in the mother liquor in each of Examples and Comparative Examples was measured as described above. The ratio in Example 1 to 6 was from 0.99 to 1.01, while it was 0.57 in Comparative Example 1, 0.87 in Comparative Example 2, and 0.42 in Comparative Example 3. Accordingly, the invention crystal can be recovered again from the mother liquor, while the first crystal cannot be recovered from the mother liquor. Such a phenomenon owes to optical enrichment phenomenon typically observed upon formation of the first crystal.
# [2] = Heat Stability Test (60° C., 3 months, glass air-tight container); details: for Decomposition product (wt. %) formed, Lot 1: Lot 1, p-toluenesulfonate
# Method: [Test 4] Heat Stability Test
# The invention crystals of suplatast tosilate obtained in accordance with the process of Example 1 and commercially available suplatast tosilate first crystals, each 3.6 g, were stored at 60° C. for 3 months in a glass air-tight container and the formation amount and powder X-ray diffraction of a decomposition product ((±)-4-(3-ethoxy-2-hydroxypropoxy) aniline derivative) were measured to investigate heat storage stability.
# [3] = Hygroscopicity Test 1 (storage at 25° C., 75% RH, time-dependent weight change); details: relative humidity 75%, FIG. 4
# Method: FIG. 4 is a graph illustrating a water content increase, at 25° C. and relative humidity of 75%, of the invention crystal of suplatast tosilate (Example 1) suplatast tosilate first crystal (commercially available product) and suplatast tosilate second crystal (Comparative Example 4).
# [Test 2] Hygroscopicity Test 1
# In a dessicator (adjusted to 75% RH) having a saturated aqueous solution of sodium chloride charged therein, 1.0 g of each of the suplatast tosilate crystals of the invention obtained in Example 1, commercially available suplatast tosilate first crystals and the suplatast tosilate second crystals obtained in Comparative Example 4 were stored at 25° C. and a time-dependent weight change was measured.
# [4] = Hygroscopicity Test 2 (storage at 40° C., relative humidity 50%, 14 days); details: for Change in appearance on storage: p-toluenesulfonate
# Method: [Test 3] Hygroscopicity Test 2
# Each of the suplatast tosilate crystals of the invention obtained in Example 1, and the second crystals obtained in accordance with the process of Comparative Example 4 (each, 0.5 g) were stored at 40° C. and relative humidity of 50% for 14 days, followed by observation of their appearance, powder X-ray diffraction and differential scanning calorimetry (DSC) in order to investigate storage stability.
# [5] = 2 months, Lot 2, p-toluenesulfonate
# [6] = 2 months, Lot 3, p-toluenesulfonate
# [7] = 3 months, Lot 2, p-toluenesulfonate
# [8] = 3 months, Lot 3, p-toluenesulfonate
compound,measurement,setting,value
"CCOCC(O)COc1ccc(NC(=O)CC[S+](C)C)cc1.Cc1ccc(S(=O)(=O)[O-])cc1 (racemic) [Comparative Example 1, (±)-[2-[4-(3-ethoxy-2-hydroxypropoxy)phenylcarbamoyl]ethyl] dimethylsulfonium p-toluenesulfonate]",Optically active substance ratio ((+)/(−)),[1],1.09
same,Optically active substance ratio of the suplatast tosilate in the mother liquor,[1],0.57
"CCOCC(O)COc1ccc(NC(=O)CC[S+](C)C)cc1.Cc1ccc(S(=O)(=O)[O-])cc1 (racemic) [Comparative Example 2, (±)-[2-[4-(3-ethoxy-2-hydroxypropoxy)phenylcarbamoyl]ethyl] dimethylsulfonium p-toluenesulfonate]",Optically active substance ratio ((+)/(−)),[1],0.97
same,Optically active substance ratio of the suplatast tosilate in the mother liquor,[1],0.87
"CCOCC(O)COc1ccc(NC(=O)CC[S+](C)C)cc1.Cc1ccc(S(=O)(=O)[O-])cc1 (racemic) [Comparative Example 3, (±)-[2-[4-(3-ethoxy-2-hydroxypropoxy)phenylcarbamoyl]ethyl] dimethylsulfonium p-toluenesulfonate]",Optically active substance ratio ((+)/(−)),[1],0.94
same,Optically active substance ratio of the suplatast tosilate in the mother liquor,[1],0.42
"CCOCC(O)COc1ccc(NC(=O)CC[S+](C)C)cc1.Cc1ccc(S(=O)(=O)[O-])cc1 (racemic) [Example 1, (±)-[2-[4-(3-ethoxy-2-hydroxypropoxy)phenylcarbamoyl]ethyl] dimethylsulfonium p-toluenesulfonate]",Optically active substance ratio ((+)/(−)),[1],1.00
"CCOCC(O)COc1ccc(NC(=O)CC[S+](C)C)cc1.Cc1ccc(S(=O)(=O)[O-])cc1 (racemic) [Example 2, (±)-[2-[4-(3-ethoxy-2-hydroxypropoxy)phenylcarbamoyl]ethyl] dimethylsulfonium p-toluenesulfonate]",Optically active substance ratio ((+)/(−)),[1],1.00
"CCOCC(O)COc1ccc(NC(=O)CC[S+](C)C)cc1.Cc1ccc(S(=O)(=O)[O-])cc1 (racemic) [Example 3, (±)-[2-[4-(3-ethoxy-2-hydroxypropoxy)phenylcarbamoyl]ethyl] dimethylsulfonium p-toluenesulfonate]",Optically active substance ratio ((+)/(−)),[1],1.00
"CCOCC(O)COc1ccc(NC(=O)CC[S+](C)C)cc1.Cc1ccc(S(=O)(=O)[O-])cc1 (racemic) [Example 6, (±)-[2-[4-(3-ethoxy-2-hydroxypropoxy)phenylcarbamoyl]ethyl] dimethylsulfonium p-toluenesulfonate]",Optically active substance ratio ((+)/(−)),[1],around 1.00
"CCOCC(O)COc1ccc(NC(=O)CC[S+](C)C)cc1.Cc1ccc(S(=O)(=O)[O-])cc1 (racemic) [First crystal, (±)-[2-[4-(3-ethoxy-2-hydroxypropoxy)phenylcarbamoyl]ethyl] dimethylsulfonium p-toluenesulfonate]","Decomposition product (wt. %) formed, Lot 1",[2]; 1 month,0.1 wt. %
same,"Decomposition product (wt. %) formed, Lot 2","[2]; 1 month, Lot 2",0.0 wt. %
same,"Decomposition product (wt. %) formed, Lot 3","[2]; 1 month, Lot 3",0.0 wt. %
same,"Decomposition product (wt. %) formed, Lot 1",[2]; 2 months,1.1 wt. %
same,"Decomposition product (wt. %) formed, Lot 2",[2]; [5],0.7 wt. %
same,"Decomposition product (wt. %) formed, Lot 3",[2]; [6],0.5 wt. %
same,Decomposition product formed after 3-month storage (over the lots),[2]; 3 months,about 1.7 wt. %
same,"Decomposition product (wt. %) formed, Lot 1",[2]; 3 months,2.1 wt. %
same,"Decomposition product (wt. %) formed, Lot 2",[2]; [7],1.5 wt. %
same,"Decomposition product (wt. %) formed, Lot 3",[2]; [8],1.4 wt. %
"CCOCC(O)COc1ccc(NC(=O)CC[S+](C)C)cc1.Cc1ccc(S(=O)(=O)[O-])cc1 (racemic) [Invention crystal, (±)-[2-[4-(3-ethoxy-2-hydroxypropoxy)phenylcarbamoyl]ethyl] dimethylsulfonium p-toluenesulfonate]",Hygroscopicity (water content increase),[3],lower hygroscopicity than each of the first crystal and second crystal
same,Change in powder X-ray diffraction peaks and DSC on storage,[4],almost free from a change in powder X-ray diffraction peaks and in DSC
same,Change in appearance on storage,[4],almost free from a change in appearance
same,"Decomposition product (wt. %) formed, Lot 1",[2]; 1 month,0.0 wt. %
same,"Decomposition product (wt. %) formed, Lot 2","[2]; 1 month, Lot 2",0.0 wt. %
same,"Decomposition product (wt. %) formed, Lot 3","[2]; 1 month, Lot 3",0.0 wt. %
same,"Decomposition product (wt. %) formed, Lot 1",[2]; 2 months,0.0 wt. %
same,"Decomposition product (wt. %) formed, Lot 2",[2]; [5],0.0 wt. %
same,"Decomposition product (wt. %) formed, Lot 3",[2]; [6],0.0 wt. %
same,Decomposition product after 3 months (in words),[2]; 3 months,no decomposition product appeared
same,"Decomposition product (wt. %) formed, Lot 1",[2]; 3 months,0.0 wt. %
same,"Decomposition product (wt. %) formed, Lot 2",[2]; [7],0.0 wt. %
same,"Decomposition product (wt. %) formed, Lot 3",[2]; [8],0.0 wt. %
"CCOCC(O)COc1ccc(NC(=O)CC[S+](C)C)cc1.Cc1ccc(S(=O)(=O)[O-])cc1 (racemic) [second crystal, (±)-[2-[4-(3-ethoxy-2-hydroxypropoxy)phenylcarbamoyl]ethyl] dimethylsulfonium p-toluenesulfonate]",Change in appearance on storage,[4],showed deliquescence after storage for one week
